Here are results for seven compounds from ChEMBL document CHEMBL1201862, “PubChem BioAssay data set” (2004).

Structures are written as SMILES.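 Where inhibition never reached the appropriate level, the endpoint shown equals the highest concentration tested. Otherwise, values were interpolated linearly from a five-concentration, 48-hour dose response in 96-well plates. At the GI50, growth is halved.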 Calls of active or inactive are those of the source. Cut-off read from the data, not from the text of the source: active = GI50 up to about 1.1 µM and inactive = higher. Where only a bound is given, the exact number is not on record here.

Common to all, as to assay: NCI tumour cell line growth inhibition, 48 h
For test [1], the system named is SNB-75.
Test [2] relates to U-251.
In test [3] the test system is CAKI-1.
In test [4] the test system is SW-620.
The test system of test [5] is EKVX.
In test [6] the test system is OVCAR-5.
Test [7] concerns SR.
Test [8] relates to SF-268.
For test [9], the system named is Hs-578T.
Test [10] relates to IGROV-1.
The test system of test [11] is HT-29.
The subject of test [12] is SNB-19.
Test [13] deals with UACC-257.
Test [14] deals with BT-549.
Test [15] deals with SF-295.
Test [16] has as its system RXF 393.
Test [17] concerns T47D.
Test [18] concerns NCI-H460.
The test system of test [19] is NCI/ADR-RES.
The test system of test [20] is SK-MEL-28.

As to `N=C1N=C(N)c2cc3c(cc21)SCCSCCCSCCS3`, the GI50 was 14.8 µM (inactive) in [1]; 15.1 µM (inactive) in [2]; 42.4 µM (inactive) in test [3]; 11.6 µM (inactive) in test [4]; 19.9 µM (inactive) in test [5]; 18.4 µM (inactive) in test [6]. For the same compound, the GI50 in test [7] is 11.1 µM (inactive); in test [8] it was 12.8 µM (inactive); in test [9], 10.1 µM (inactive); in [10], 17.2 µM (inactive); in test [11] it was 11.2 µM (inactive); in test [12] it was 15.5 µM (inactive). Further, the GI50 in test [13] is 20.2 µM (inactive); in test [14], 14.1 µM (inactive); in [15], 13.9 µM (inactive); in [16], 15.8 µM (inactive); in test [17], 24.8 µM (inactive); in [18], 13.3 µM (inactive). Besides, the GI50 in [19] is 58.1 µM (inactive); in test [20], 14.6 µM (inactive).
For `COC(CNC(=O)C(C)NC(=O)CCc1ccccc1)OC` (centres undefined), the GI50 in [1], in test [2], in [3], in test [4], in test [5] and in test [6] was > 100 µM (inactive) in each case. Besides, the GI50 in test [7], in test [8], in [9], in [10], in test [11] and in test [12] was > 100 µM (inactive) throughout. Moreover, the GI50 in test [13], in test [14], in test [15], in test [16], in test [17] and in [18] was > 100 µM (inactive) each time. Moreover, the GI50 in test [19] and in test [20] was > 100 µM (inactive) in each case.
With `COC(=O)CN1c2nc(C#N)c(C#N)nc2N(CC(=O)OC)c2nc(C#N)c(C#N)nc21`, the GI50 was 14 µM (inactive) in test [1]; 6.81 µM (inactive) in [2]; 0.54 µM (active) in [3]; 1.76 µM (inactive) in test [4]; 4.47 µM (inactive) in test [5]; 8 µM (inactive) in test [6]. Besides, the GI50 in test [7] is 2 µM (inactive); in test [8] it was 4.05 µM (inactive); in test [9], 19.6 µM (inactive); in test [10], 3.46 µM (inactive); in test [11], 3.02 µM (inactive); in test [12], 12 µM (inactive). Besides, the GI50 in test [13] is 2.72 µM (inactive); in test [14], 4.78 µM (inactive); in test [15], 19.5 µM (inactive); in [16] it was 2.91 µM (inactive); in test [17], 2.35 µM (inactive); in [18] it was 22 µM (inactive). Also, the GI50 in test [19] was 18.7 µM (inactive); in test [20], 3.74 µM (inactive).
As for `Cn1nc2ccc([N+](=O)[O-])cc2[n+]1[O-]`, the GI50 in [1], in test [2], in test [3], in test [5], in [6] and in test [7] was > 100 µM (inactive) each time. Besides, the GI50 in test [9], in [10], in test [11], in test [12], in test [13] and in test [14] was > 100 µM (inactive) throughout. The GI50 in test [15], in test [16], in [17], in [18] and in test [19] was > 100 µM (inactive) throughout.
Regarding `O=c1ccc2[n+]([O-])c3ccc(O)cc3oc-2c1` [RESAZURIN], the GI50 in test [1] was 3.45 µM (inactive); in test [2], 9.68 µM (inactive); in test [3], 32.5 µM (inactive); in test [4], 11.5 µM (inactive); in test [5] it was 28.8 µM (inactive); in test [6], 23.6 µM (inactive). For the same compound, the GI50 in test [7] is 15.3 µM (inactive); in test [8] it was 19.2 µM (inactive); in test [9], 7.53 µM (inactive); in test [10] it was 25.2 µM (inactive); in test [11], 19.6 µM (inactive); in test [13] it was 11.2 µM (inactive). For the same compound, the GI50 in test [14] was 10.7 µM (inactive); in test [15], 7.41 µM (inactive); in test [16] it was 37 µM (inactive); in [17], 56.4 µM (inactive); in test [18], 12.3 µM (inactive); in test [19], 13.4 µM (inactive). Also, in test [20], the GI50 is 10.2 µM (inactive).
Turning to `CCC(=O)Nc1cccc(/N=C/c2ccc(OC(=O)/C=C\c3ccccc3)cc2)c1`, the GI50 was 12.3 µM (inactive) in test [1]; > 75 µM (inactive) in test [3]; > 75 µM (inactive) in [4]; 52.1 µM (inactive) in test [5]; > 75 µM (inactive) in test [6]; 54.7 µM (inactive) in test [7]. The GI50 in test [8] was 36.7 µM (inactive); in test [9], 32.5 µM (inactive); in test [10], 37.8 µM (inactive); in test [11], 36.3 µM (inactive); in test [12] it was > 75 µM (inactive); in [13] it was > 75 µM (inactive). The GI50 is 37 µM (inactive) in test [14]; 41.3 µM (inactive) in test [15]; 12.2 µM (inactive) in test [16]; 8.26 µM (inactive) in test [17]; 61.5 µM (inactive) in [18]; > 75 µM (inactive) in [19]. In test [20], the GI50 is 61.4 µM (inactive).
Consider `O=c1oc2ccccc2cc1-c1nc2ccc([N+](=O)[O-])cc2o1`, for which the GI50 in [1], in test [2], in test [3], in [4], in [5] and in test [7] was > 100 µM (inactive) in each case. The GI50 in test [8] was > 100 µM (inactive); in [9], 84.9 µM (inactive); in test [10], > 100 µM (inactive); in test [11] it was 67.6 µM (inactive); in test [12], 30.2 µM (inactive); in test [13], > 100 µM (inactive). For the same compound, the GI50 was > 100 µM (inactive) in test [14]; 83.4 µM (inactive) in test [15]; > 100 µM (inactive) in [16]; > 100 µM (inactive) in test [17]; > 100 µM (inactive) in test [18]; > 100 µM (inactive) in test [19]. Besides, in test [20], the GI50 was > 100 µM (inactive).
